Data taken from US11466044B2 (WAYNE STATE UNIVERSITY, priority 2017, dated 2022).
Converted amounts (≈) assume the structure as drawn. Read-outs that look alike come from different tables or passages of the source.

Columns and labels:
P aeruginosa = experiment: MIC by broth microdilution, P aeruginosa isolates; format: cell-based, Pseudomonas aeruginosa; details: strain AG220 Pseudomonas aeruginosa ATCC27853; read-out: MIC AG220 P. aerugin
MRSA = experiment: MIC by broth microdilution, MRSA isolates; format: cell-based; details: Staphylococcus aureus, MRSA, Table 1 (Example 3)
[1] = system: Acinetobacter baumannii pittii AG225; experiment: MIC by broth microdilution, Acinetobacter baumannii; format: cell-based; details: strain AG225 Acinetobacter baumannii pittii
[2] = Casinelli et al., J Antibiotics 1978, 31, 378 and 382; cited from earlier work
[3] = system: Klebsiella pneumonia AG215; experiment: MIC by broth microdilution, Klebsiella pneumonia; format: cell-based; details: Klebsiella pneumoniae; strain AG215 Klebsiella pneumonia; read-out: MIC AG215 K. pneumon
[4] = system: Enterobacter cloacae AG290; experiment: MIC by broth microdilution, Enterobacter cloacae; format: cell-based; details: strain AG290 Enterobacter cloacae; read-out: MIC AG290 E. cloacae
[5] = system: cytosolic ribosome (human chimeric); format: biochemical; details: for Selectivity for Binding to the Bacterial Ribosome over the Cytosolic Ribosome: Table 3 (Example 3); for IC50: cytosolic, Table 4 (Example 3), read-out: IC50 Cyt
Text: (§1) The antiribosomal activity of these compounds was investigated with cell-free translation assays using both wild type bacterial ribosomes and hybrid ribosomes carrying eukaryotic decoding A sites enabling the prediction of selectivity.

[6] = system: mitochondrial ribosome (human chimeric); format: biochemical; details: for Selectivity for Binding to the Bacterial Ribosome over the Mitochondrial Ribosome: Table 3 (Example 3); for IC50: mitochondrial, Table 4 (Example 3), read-out: IC50 Mit
Text: as §1

[7] = system: E coli carrying specific resistance determinants; experiment: MIC by broth microdilution, E coli carrying specific resistance determinants; format: cell-based; details: for MIC: Escherichia coli
E coli wild type = experiment: MIC by broth microdilution, wild type E coli; format: cell-based; details: for MIC: Escherichia coli
[8] = system: A1555G mutant mitochondrial ribosome (human chimeric); experiment: in-vitro translation assay, human chimeric ribosomes, A1555G mutant mitochondrial decoding site; format: biochemical; details: Table 3 (Example 3)
Text: as §1

N. gonorrhoeae = experiment: Disk diffusion, N. gonorrhoeae; format: cell-based; details: Neisseria gonorrhoeae
[9] = system: wild type bacterial ribosomes; experiment: in-vitro translation assay, bacterial ribosomes; format: biochemical; details: for IC50: bacterial ribosome, Table 4 (Example 3), read-out: IC50 Bac; for selectivity for the bacterial ribosome over mitochondrial (wild type, A1555G mutant) and cytosolic ribosomes, in words: compared with the parent compound
Text: as §1

M. abscessus = experiment: MIC by broth microdilution, M. abscessus; format: cell-based; details: Mycobacteroides abscessus
M. smegmatis SZ380 = experiment: MIC by broth microdilution, M. smegmatis; details: Mycolicibacterium smegmatis
[10] = clinical isolate AG038, read-out: MIC MRSA AG038
[11] = clinical isolate AG039, read-out: MIC MRSA AG039
[12] = clinical isolate AG042, read-out: MIC MRSA AG042
[13] = clinical isolate AG044, read-out: MIC MRSA AG044
[14] = read-out: MIC E. coli AAC(2′) AG106
[15] = read-out: MIC E. coli AAC(2′) pH434
[16] = read-out: MIC E. coli pGB2armA armA
[17] = read-out: MIC E. coli pH434 AAC(2′)-Ib
[18] = ATCC25922, strain AG212 E. coli (ATCC25922), read-out: MIC AG212 E. coli
[19] = WT, Table 4 (Example 3), read-out: MIC E. coli WT
[20] = WT, Table 5 (Example 3), read-out: MIC E. coli WT
[21] = clinical isolate AG001, Table 1 (Example 3), read-out: MIC E coli AG001
[22] = clinical isolate AG003, Table 1 (Example 3), read-out: MIC E coli AG003
[23] = clinical isolate AG055, Table 1 (Example 3), read-out: MIC E coli AG055
[24] = ATCC19977, ATCC 19977 WT, Table 5 (Example 3), read-out: MIC M. abscessus ATCC 19977 WT
[25] = read-out: MIC M. abscessus engineered Δeis2
[26] = ATCC, Table 4 (Example 3), read-out: MIC M. abscessus ATCC
[27] = Clin. Isol., Table 4 (Example 3), read-out: MIC M. abscessus Clin. Isol.
[28] = SZ380, read-out: MIC M. smegmatis SZ380 WT, SZ380 WT, Table 5 (Example 3)
[29] = SZ380, read-out: MIC SZ380 M. smegmatis, strain SZ380 Mycobacterium smegmatis

| SMILES | MIC (P aeruginosa) | MIC (MRSA; [10]) | MIC (MRSA; [11]) | MIC (MRSA; [12]) | MIC (MRSA; [13]) | MIC [1] | antibiotic potency compared with the parent compounds, in words [2] | MIC [3] | MIC [4] | Selectivity for Binding to the Bacterial Ribosome over the Cytosolic Ribosome [5] | IC50 [5] | Selectivity for Binding to the Bacterial Ribosome over the Mitochondrial Ribosome [6] | IC50 [6] | MIC [7, 14] | MIC [7, 15] | MIC [7, 16] | MIC [7, 17] | MIC (E coli wild type; [18]) | MIC (E coli wild type; [19]) | MIC (E coli wild type; [20]) | other results |
| --- | --- | --- | --- | --- | --- | --- | --- | --- | --- | --- | --- | --- | --- | --- | --- | --- | --- | --- | --- | --- | --- |
| CCNC1C(OC2C(N)CC(N)C(O)C2OC2OC(CO)C(OC3OC(CN)C(O)C(O)C3N)C2O)OC(CO)C(O)C1O (centres unmarked) [Compound 127] | > 64 µg/mL | 8 µg/mL (≈ 12.4 µM) | > 128 µg/mL | > 128 µg/mL | 4 to 8 µg/mL (≈ 6.21 to 12.4 µM) | 4 µg/mL (≈ 6.21 µM) | comparable antibiotic potency to the parent compounds | 2 µg/mL (≈ 3.11 µM) | 2 to 4 µg/mL (≈ 3.11 to 6.21 µM) | 918 | 28 µM | 4715 | 141 µM | 2 µg/mL (≈ 3.11 µM) | 4 µg/mL (≈ 6.21 µM) | 4 to 8 µg/mL (≈ 6.21 to 12.4 µM) | 4 µg/mL (≈ 6.21 µM) | 4 µg/mL (≈ 6.21 µM) | 2 µg/mL (≈ 3.11 µM) | 2 µg/mL (≈ 3.11 µM) | MIC (E coli wild type; [21]): 16 µg/mL (≈ 24.9 µM); MIC (E coli wild type; [22]): 16 µg/mL (≈ 24.9 µM); MIC (E coli wild type; [23]): 16 µg/mL (≈ 24.9 µM); Selectivity for Binding to the Bacterial Ribosome over the Mutant Mitochondrial Ribosome [8]: 1804; zone of inhibition at 25 nmol/disc (N. gonorrhoeae): 9 mm; IC50 [9]: 0.03 µM; selectivity for the bacterial ribosome over mitochondrial (wild type, A1555G mutant) and cytosolic ribosomes, in words [9]: increased selectivity for the bacterial ribosome; MIC (M. abscessus; [24]): 32 µg/mL (≈ 49.7 µM); MIC (M. abscessus; [25]): 0.5 µg/mL (≈ 0.777 µM); MIC (M. abscessus; [26]): 32 µg/mL (≈ 49.7 µM); MIC (M. abscessus; [27]): 64 µg/mL (≈ 99.4 µM); MIC (M. smegmatis SZ380; [28]): 4 µg/mL (≈ 6.21 µM); MIC (M. smegmatis SZ380; [29]): 4 µg/mL (≈ 6.21 µM) |
| NCC1OC(OC2C(CO)OC(OC3C(O)C(N)CC(N)C3OC3OC(CN)C(O)C(O)C3O)C2O)C(N)C(O)C1O (centres unmarked) [Compound 119] | > 64 µg/mL | 2 µg/mL (≈ 3.25 µM) | > 128 µg/mL | > 128 µg/mL | 2 µg/mL (≈ 3.25 µM) | 1 µg/mL (≈ 1.62 µM) | comparable antibiotic potency to the parent compounds | 0.5 µg/mL (≈ 0.812 µM) | 1 µg/mL (≈ 1.62 µM) | 3667 | 108 µM | 1222 | 36 µM | 1 µg/mL (≈ 1.62 µM) | 4 µg/mL (≈ 6.5 µM) | 1 µg/mL (≈ 1.62 µM) | 4 µg/mL (≈ 6.5 µM) | 1 µg/mL (≈ 1.62 µM) | 0.5 to 1 µg/mL (≈ 0.812 to 1.62 µM) | 0.5 to 1 µg/mL (≈ 0.812 to 1.62 µM) | effect of the AAC(2′) resistance determinant, in words ([7]; AAC(2′)): overcomes the effect of AAC(2′); MIC ([7]; read-out: MIC E coli AG106 AAC(2′)): 1 µg/mL (≈ 1.62 µM); MIC ([7]; read-out: MIC E. coli AG106 AAC(2′)-Ia): 1 µg/mL (≈ 1.62 µM); MIC (E coli wild type; AG006 Wild type, Table 2 (Example 3), read-out: MIC E coli AG006 Wild type): 0.5 µg/mL (≈ 0.812 µM); MIC (E coli wild type; AG104 Wild type, Table 2 (Example 3), read-out: MIC E coli AG104 Wild type): 1 µg/mL (≈ 1.62 µM); MIC (E coli wild type; [21]): 2 to 4 µg/mL (≈ 3.25 to 6.5 µM); MIC (E coli wild type; [22]): 2 to 4 µg/mL (≈ 3.25 to 6.5 µM); MIC (E coli wild type; [23]): 2 to 4 µg/mL (≈ 3.25 to 6.5 µM); antibacterial activity, in words (E coli wild type; MRSA and E coli, compared with the parent compound): little to no loss of antibacterial activity; Selectivity for Binding to the Bacterial Ribosome over the Mutant Mitochondrial Ribosome [8]: 94; IC50 [9]: 0.03 µM; selectivity for the bacterial ribosome over mitochondrial (wild type, A1555G mutant) and cytosolic ribosomes, in words [9]: increased selectivity for the bacterial ribosome; MIC (M. abscessus; [24]): 2 µg/mL (≈ 3.25 µM); MIC (M. abscessus; [25]): 0.125 µg/mL (≈ 0.203 µM); MIC (M. abscessus; [26]): 2 µg/mL (≈ 3.25 µM); MIC (M. abscessus; [27]): 4 µg/mL (≈ 6.5 µM); MIC (M. smegmatis SZ380; [28]): 0.5 µg/mL (≈ 0.812 µM); MIC (M. smegmatis SZ380; [29]): 0.5 µg/mL (≈ 0.812 µM) |
